pIC50: −log10 of the molar value.
Tests used:
human full-length HSP90 = target: T1, human full-length HSP90 (Homo sapiens, UniProt P08238); assay: Fluorescence polarization assay (competitive displacement of fluorescein-labelled probe from HSP90); type: binding; settings: human full-length HSP90 200 nM, probe 80 nM; read-out: FP IC50 (activity in the fluorescence polarization assay)
T1 construct: E. coli expressed human full-length HSP90 protein; made in house; host or cells: E. coli
Text: Fluorescence Polarization Assay
Fluorescence polarization {also known as fluorescence anisotropy} measures the rotation of a fluorescing species in solution, where the larger molecule the more polarized the fluorescence emission. When the fluorophore is excited with polarized light, the emitted light is also polarized. The molecular size is proportional to the polarization of the fluorescence emission.
The fluoroscein-labelled probe—
binds to HSP90 {full-length human, full-length yeast or N-terminal domain HSP90} and the anisotropy {rotation of the probe:protein complex} is measured.
Test compound is added to the assay plate, left to equilibrate and the anisotropy measured again. Any change in anisotropy is due to competitive binding of compound to HSP90, thereby releasing probe.
Chemicals are of the highest purity commercially available and all aqueous solutions are made up in AR water. • 1) Costar 96-well black assay plate #3915 • 2) Assay buffer of (a)100 mM Tris pH7.4; (b) 20 mM KCl; (c) 6 mM MgCl2. Stored at room temperature. • 3) BSA (bovine serum albumen) 10 mg/ml (New England Biolabs # B9001S) • 4) 20 mM probe in 100% DMSO stock concentration. Stored in the dark at RT. Working concentration is 200 nM diluted in AR water and stored at 4° C. Final concentration in assay 80 nM. • 5) E. coli expressed human full-length HSP90 protein, purified >95% (see, e.g., Panaretou et al., 1998) and stored in 50 μL aliquots at −80° C.
Protocol • 1) Add 100 μl 1× buffer to wells 11A and 12A (=FP BLNK) • 2) Prepare assay mix—all reagents are kept on ice with a lid on the bucket as the probe is light-sensitive.
• 3) Aliquot 100 μl assay mix to all other wells • 4) Seal plate and leave in dark at room temp for 20 minutes to equilibrate
Compound Dilution Plate—1×3 dilution series • 1) In a clear 96-well v-bottom plate—{# VWR 007/008/257} add 10 μl 100% DMSO to wells B1 to H11 • 2) To wells A1 to A11 add 17.5 μl 100% DMSO • 3) Add 2.5 μl cpd to A1. This gives 2.5 mM {50×} stock cpd—assuming cpds 20 mM. • 4) Repeat for wells A2 to A10. Control in columns 11 and 12. • 5) Transfer 5 μl from row A to row B—not column 12. Mix well. • 6) Transfer 5 μl from row B to row C. […] In column 11 {provides standard curve} only add compound B11-H11. Add 2 μl of 100 mM standard cpd to wells B12-H12 {is positive control} • 13) The Z′ factor is calculated from zero controls and positive wells. It typically gives a value of 0.7-0.9.

[1] = Growth inhibition assay: cytotoxicity by sulforhodamine B (SRB) assay; type: cell-based; settings: SRB stain, absorbance at 540 nm; cell line not named
Protocol: A growth inhibition assay was also employed for the evaluation of candidate HSP90 inhibitors:
Assessment of Cytotoxicity by Sulforhodamine B (SRB) Assay: Calculation of 50% Inhibitory Concentration (IC50).
Day 1 • 1) Determine cell number by haemocytometer. • 2) Using an 8 channel multipipettor, add 160 μl of the cell suspension (3600 cells/well or 2×10^4 cells/ml) to each well of a 96-well microtitre plate. • 3) Incubate overnight at 37° C. in a CO2 incubator. […]
Day 6 • 8) Tip off medium into sink and immerse plate slowly into 10% ice cold trichloroacetic acid (TCA). […] Leave for 15 mins. • 12) Wash off unbound SRB stain with four washes of 1% acetic acid. • 13) Dry plates in incubator. • 14) Solubilise SRB using 100 μl of 10 mM Tris base and put plates on plate shaker for 5 mins. • 15) Determine absorbance at 540 nm using a plate reader. Calculate mean absorbance for quadruplicate wells and express as a percentage of value for control, untreated wells. • 16) Plot % absorbance values versus log drug concentration and determine the IC50.

T1 sequence (P08238 whole entry): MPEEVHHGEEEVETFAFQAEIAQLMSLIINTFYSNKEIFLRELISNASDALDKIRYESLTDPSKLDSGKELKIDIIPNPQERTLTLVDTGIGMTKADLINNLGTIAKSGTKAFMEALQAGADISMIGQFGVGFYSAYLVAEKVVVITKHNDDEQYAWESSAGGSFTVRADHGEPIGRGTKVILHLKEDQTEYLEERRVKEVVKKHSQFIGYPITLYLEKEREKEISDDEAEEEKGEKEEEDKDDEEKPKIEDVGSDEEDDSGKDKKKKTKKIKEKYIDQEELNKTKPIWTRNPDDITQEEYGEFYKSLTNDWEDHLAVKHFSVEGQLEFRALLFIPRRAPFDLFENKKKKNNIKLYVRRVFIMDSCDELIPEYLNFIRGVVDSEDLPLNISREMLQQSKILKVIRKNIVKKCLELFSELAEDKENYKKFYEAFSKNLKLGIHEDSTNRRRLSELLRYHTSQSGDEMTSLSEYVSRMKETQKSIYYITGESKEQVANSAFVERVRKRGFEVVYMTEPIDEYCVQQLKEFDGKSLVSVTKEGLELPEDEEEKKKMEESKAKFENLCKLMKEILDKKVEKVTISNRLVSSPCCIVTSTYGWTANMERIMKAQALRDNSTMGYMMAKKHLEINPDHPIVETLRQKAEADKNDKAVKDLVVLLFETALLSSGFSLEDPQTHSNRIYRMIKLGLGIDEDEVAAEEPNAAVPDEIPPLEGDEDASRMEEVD

Cc1ccc(-c2ccnc3[nH]cc(C#N)c23)c(C)c1 [Example 1, 4-(2,4-Dimethyl-phenyl)-1H-pyrrolo[2,3-b]pyridine-3-carbonitrile]
pIC50 (human full-length HSP90): > 6.00

N#Cc1c[nH]c2nccc(-c3ccc(Cl)cc3Cl)c12 [Example 2, 4-(2,4-Dichloro-phenyl)-1H-pyrrolo[2,3-b]pyridine-3-carbonitrile]
pIC50 (human full-length HSP90): > 6.00

N#Cc1c[nH]c2nc(Cl)cc(-c3ccc(Cl)cc3Cl)c12 [Example 3, 6-Chloro-4-(2,4-dichloro-phenyl)-1H-pyrrolo[2,3-b]pyridine-3-carbonitrile]
pIC50 (human full-length HSP90): > 6.00

COc1cc(-c2ccnc3[nH]cc(C#N)c23)c(Cl)cc1Cl [Example 4, 4-(2,4-Dichloro-5-methoxy-phenyl)-1H-pyrrolo[2,3-b]pyridine-3-carbonitrile]
pIC50 (human full-length HSP90): > 6.00

COc1cc(-c2cc(Cl)nc3[nH]cc(C#N)c23)c(Cl)cc1Cl [Example 5, 6-Chloro-4-(2,4-dichloro-5-methoxy-phenyl)-1H-pyrrolo[2,3-b]pyridine-3-carbonitrile]
pIC50 (human full-length HSP90): > 6.00
pIC50 [1]: > 4.30

Cc1ccc(-c2ccnc3[nH]cc(Br)c23)c(C)c1 [Example 6]
pIC50 (human full-length HSP90): 5.00 to 6.00

Cc1ccc(-c2ccnc3[nH]cc(C=O)c23)c(C)c1 [Example 7, 4-(2,4-Dimethyl-phenyl)-1H-pyrrolo[2,3-b]pyridine-3-carbaldehyde]
pIC50 (human full-length HSP90): > 6.00

CCN(CC)CCOc1cc(-c2ccccc2)c2c(C#N)c[nH]c2n1 [Example 9, 6-(2-Diethylamino-ethoxy)-4-phenyl-1H-pyrrolo[2,3-b]pyridine-3-carbonitrile]
pIC50 (human full-length HSP90): < 5.00

CCN(CC)CCOc1cc(-c2ccc(Cl)cc2Cl)c2c(C#N)c[nH]c2n1 [Example 10, 4-(2,4-Dichloro-phenyl)-6-(2-diethylamino-ethoxy)-1H-pyrrolo[2,3-b]pyridine-3-carbonitrile]
pIC50 (human full-length HSP90): 5.00 to 6.00

N#Cc1c[nH]c2nc(OCCCN3CCCCC3)cc(-c3ccc(Cl)cc3Cl)c12 [Example 11, 4-(2,4-Dichloro-phenyl)-6-(3-piperidin-1-yl-propoxy)-1H-pyrrolo[2,3-b]pyridine-3-carbonitrile]
pIC50 (human full-length HSP90): 5.00 to 6.00

N#Cc1c[nH]c2nccc(-c3cccc(O)c3)c12 [Example 12, 4-(3-Hydroxy-phenyl)-1H-pyrrolo[2,3-b]pyridine-3-carbonitrile]
pIC50 (human full-length HSP90): 5.00 to 6.00

CCN(CC)CCOc1cccc(-c2ccnc3[nH]cc(C#N)c23)c1 [Example 13, 4-[3-(2-Diethylamino-ethoxy)-phenyl]-1H-pyrrolo[2,3-b]pyridine-3-carbonitrile]
pIC50 (human full-length HSP90): 5.00 to 6.00

N#Cc1c[nH]c2nc(Cl)cc(-c3cccc(O)c3)c12 [Example 14, 6-Chloro-4-(3-hydroxy-phenyl)-1H-pyrrolo[2,3-b]pyridine-3-carbonitrile]
pIC50 (human full-length HSP90): > 6.00

COc1cc(-c2ccccc2)c2c(C#N)c[nH]c2n1 [Example 15, 6-methoxy-4-(-phenyl)-1H-pyrrolo[2,3-b]pyridine-3-carbonitrile]
pIC50 (human full-length HSP90): > 6.00

From patent US20100010037A1, “1H-PYRROLO[2,3-B]PYRIDINE DERIVATIVES USEFUL AS HSP90 INHIBITORS” (VERNALIS (R&D) LTD., priority 2006, published 2010)
